Reference: PubChem BioAssay (NCI)
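Method: 48-hour compound exposure of cells in 96-well plates, five concentrations, linear interpolation of endpoints. The concentration for 50% growth inhibition is given as GI50. TGI: total growth inhibition.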

How the values were obtained:
Assay in all cases: growth of human tumour cells (NCI), 48 h
LOX IMVI melanoma = tested on: LOX IMVI melanoma
SK-MEL-5 melanoma = tested on: SK-MEL-5 melanoma
HL-60(TB) leukemia = tested on: HL-60(TB) leukemia
HCT-116 colon = tested on: HCT-116 colon
TK-10 renal = tested on: TK-10 renal
NCI-H23 lung = tested on: NCI-H23 lung
HCT-15 colon = tested on: HCT-15 colon
MALME-3M melanoma = tested on: MALME-3M melanoma
MDA-N = tested on: MDA-N
SK-OV-3 ovarian = tested on: SK-OV-3 ovarian

Cc1cccc2c1Oc1ccccc1C2NC(=O)c1ccc([N+](=O)[O-])cc1 (stereo not given)
TGI (LOX IMVI melanoma): > 100 µM | TGI (SK-MEL-5 melanoma): > 100 µM | TGI (HL-60(TB) leukemia): > 100 µM | TGI (HCT-116 colon): > 100 µM | TGI (TK-10 renal): > 100 µM | TGI (NCI-H23 lung): > 100 µM | TGI (HCT-15 colon): > 100 µM | TGI (MALME-3M melanoma): > 100 µM | TGI (MDA-N): > 100 µM

CC1=C2C(=O)[C@H]3[C@@H](CC=C4C[C@@H](O)CC[C@@]43C)[C@@H]2CC[C@]12O[C@@H]1C[C@H](C)CN[C@H]1[C@H]2C
TGI (LOX IMVI melanoma): > 58.2 µM | TGI (SK-MEL-5 melanoma): > 61.9 µM | TGI (HL-60(TB) leukemia): > 65.5 µM | TGI (HCT-116 colon): > 68.5 µM | TGI (TK-10 renal): > 53.8 µM | TGI (NCI-H23 lung): > 58 µM | TGI (HCT-15 colon): > 81.3 µM | TGI (MALME-3M melanoma): > 79.3 µM | TGI (SK-OV-3 ovarian): > 57.3 µM | TGI (MDA-N): > 100 µM

COc1nc(SC)nc2c1cnn2C1OC(C(O)CO)C(OC)C1O (stereo not given)
TGI (LOX IMVI melanoma): > 100 µM | TGI (SK-MEL-5 melanoma): > 100 µM | TGI (HL-60(TB) leukemia): > 100 µM | TGI (HCT-116 colon): > 100 µM | TGI (NCI-H23 lung): > 100 µM | TGI (HCT-15 colon): > 100 µM | TGI (MALME-3M melanoma): > 100 µM | TGI (SK-OV-3 ovarian): > 100 µM

CCCCC(C)C1CCC2(C)C=CC(=O)C(C)=C2C1O (stereo not given)
TGI (LOX IMVI melanoma): > 100 µM | TGI (SK-MEL-5 melanoma): > 100 µM | TGI (HL-60(TB) leukemia): > 100 µM | TGI (HCT-116 colon): > 100 µM | TGI (NCI-H23 lung): > 100 µM | TGI (HCT-15 colon): > 100 µM | TGI (SK-OV-3 ovarian): > 100 µM

CCC1=CC2CN3CCc4c([nH]c5ccccc45)C(C(=O)OC)(C2)C13 (stereo not given)
TGI (LOX IMVI melanoma): 121 µM | TGI (SK-MEL-5 melanoma): 79.4 µM | TGI (HL-60(TB) leukemia): 125 µM | TGI (HCT-116 colon): 71 µM | TGI (NCI-H23 lung): 100 µM | TGI (HCT-15 colon): 90.8 µM | TGI (MALME-3M melanoma): 92.8 µM | TGI (SK-OV-3 ovarian): 134 µM

NCCCNc1nc2ccccc2c2c(=O)c3cc(C(F)(F)F)ccc3sc12
GI50 (SK-MEL-5 melanoma): 1.7 µM | TGI (SK-MEL-5 melanoma): 3.07 µM

Cc1[nH]c(=O)nc(N/N=C/c2ccc(Cl)cc2)c1C(=O)NC(C)(CO)CO
TGI (LOX IMVI melanoma): > 100 µM | TGI (SK-MEL-5 melanoma): > 100 µM | TGI (HL-60(TB) leukemia): > 100 µM | TGI (HCT-116 colon): > 100 µM | TGI (TK-10 renal): > 100 µM | TGI (NCI-H23 lung): > 100 µM | TGI (HCT-15 colon): > 100 µM | TGI (MALME-3M melanoma): > 100 µM | TGI (SK-OV-3 ovarian): > 100 µM | TGI (MDA-N): > 100 µM

CC1(C23CC4CC(CC(C4)C2)C3)n2c(=O)n(-c3ccccc3)c(=O)n2C1(C)C12CC3CC(CC(C3)C1)C2 (stereo not given)
TGI (SK-MEL-5 melanoma): > 100 µM | TGI (HL-60(TB) leukemia): > 100 µM | TGI (TK-10 renal): > 100 µM | TGI (NCI-H23 lung): > 100 µM | TGI (HCT-15 colon): > 100 µM | TGI (SK-OV-3 ovarian): > 100 µM | TGI (MDA-N): > 100 µM

CN1C2CC(=O)CC1[C@H](O)[C@@H]2O
TGI (LOX IMVI melanoma): > 100 µM | TGI (HL-60(TB) leukemia): > 100 µM | TGI (HCT-116 colon): > 100 µM | TGI (TK-10 renal): > 100 µM | TGI (NCI-H23 lung): > 100 µM | TGI (HCT-15 colon): > 100 µM | TGI (MALME-3M melanoma): > 100 µM | TGI (MDA-N): > 100 µM

CCOC(=O)c1csc(NC(=O)CCN2CCCCC2)n1
TGI (LOX IMVI melanoma): > 100 µM | TGI (SK-MEL-5 melanoma): > 100 µM | TGI (HL-60(TB) leukemia): > 100 µM | TGI (TK-10 renal): > 100 µM | TGI (NCI-H23 lung): > 100 µM | TGI (HCT-15 colon): > 100 µM | TGI (MALME-3M melanoma): > 100 µM | TGI (SK-OV-3 ovarian): > 100 µM | TGI (MDA-N): > 100 µM

COCC1CCCN1c1ccc(/C=C(/C#N)C(N)=S)cc1 (stereo not given)
GI50 (LOX IMVI melanoma): > 100 µM | TGI (LOX IMVI melanoma): > 100 µM | GI50 (SK-MEL-5 melanoma): 89.1 µM | TGI (SK-MEL-5 melanoma): > 100 µM | GI50 (HL-60(TB) leukemia): > 100 µM | TGI (HL-60(TB) leukemia): > 100 µM | GI50 (HCT-116 colon): > 100 µM | TGI (HCT-116 colon): > 100 µM | GI50 (TK-10 renal): > 100 µM | TGI (TK-10 renal): > 100 µM | GI50 (NCI-H23 lung): > 100 µM | TGI (NCI-H23 lung): > 100 µM | GI50 (HCT-15 colon): > 100 µM | TGI (HCT-15 colon): > 100 µM | GI50 (MALME-3M melanoma): > 100 µM | TGI (MALME-3M melanoma): > 100 µM | GI50 (SK-OV-3 ovarian): > 100 µM | TGI (SK-OV-3 ovarian): > 100 µM

COc1cc(C2C(Cl)C(=O)N2NC(=O)c2ccccc2O)ccc1O (stereo not given)
TGI (LOX IMVI melanoma): > 100 µM | TGI (SK-MEL-5 melanoma): > 100 µM | TGI (HL-60(TB) leukemia): > 100 µM | TGI (HCT-116 colon): > 100 µM | TGI (TK-10 renal): > 100 µM | TGI (NCI-H23 lung): > 100 µM | TGI (HCT-15 colon): > 100 µM | TGI (MALME-3M melanoma): > 100 µM | TGI (SK-OV-3 ovarian): > 100 µM
